Experimental findings from patent publication US9045490B2, “Use of parthenolide derivatives as antileukemic and cytotoxic agents” (University of Kentucky, priority 2003, dated 2015) are described below.

The structures appear in SMILES notation. Like-named read-outs stand apart in the source and are kept apart here.

The subject of data set [1] is MDA-MB-231 breast cancer cells. In words: TRAIL induced apoptosis assay (carboxyfluorescein-FLICA, FACScan). To be noted: 2 or 5 μM pre-treatment two hours, then TRAIL 5 ng/ml or TRAIL-RII antibodies 10 ng/ml, 48 hours. In kind it is cell-based. Here is the method:
MDA-MB-231 breast cancer cells (2×10^5 cells in 60 mm plates) were treated first with 2 or 5 μM of DMAPT (LC-1). After two hours, TRAIL (TNF related-apoptosis-inducing-ligand, 5 ng/ml) or TRAIL-RII-activating antibodies (10 ng/ml) were added. After 48 hours of TRAIL or TRAIL-RII antibody treatment, cells were harvested and apoptosis was measured using carboxyfluorescein-FLICA assay. Briefly, both attached and floating cells were collected by trypsinization, incubated with carboxyfluorescein-labeled pan-caspase inhibitor FAM-VAD-FMK for 2 h at 37° C. Labeled cells were rinsed twice in PBS and resuspended in 300 μl of PBS containing 0.3 μg of propidium iodide. Apoptotic cells were identified by FACScan analysis. […] FAM-VAD-FMK stains apoptotic cells (upper left). Apoptotic cells that have lost plasma membrane integrity are stained by both FAM-VAD-FMK and propidium iodide (upper right). Necrotic cells are stained only by propidium iodide (lower right). MDA-MB-231 cells are relatively resistant to TRAIL.

Data set [2] relates to human monocyte cell line THP-1. In words: cDNA array analysis of inflammation genes. Format: cell-based. Here is the method: Total cellular RNA was extracted from the human monocyte cell line THP-1 under three conditions 2 hours after Time 0:
1) Control was added at Time 0 […]
RNA was extracted using RNeasy Min Kit (Qiagen, USA) according to the manufacturer's instructions. The Human Drug Targets for Inflammation and Immunomodulation Q series GE array kit (HS-048-12) was obtained from SuperArray Bioscience Corporation (Frederick, Md.). The kit determines expression of 96 genes that are associated with inflammation. RNA from respective samples was used as a template to generate biotin labeled cDNA probes using GEArray Ampolabelling RT kit (SuperArray, Bioscience Corp., USA). The cDNA probes corresponding to the mRNA population were then denatured and hybridization was carried out in GEHyb solution to nylon membranes spotted with gene specific fragments. Membranes were then washed in 2×SSC, 1% SDS twice for 15 minutes each, followed by 0.1 SSC, 0.5% SDS twice for 15 minutes each. Chemiluminescence was used to visualize the expression levels of each transcript and the results were quantified with the GEArray Analyzer. The change in a given gene transcript was estimated by normalizing the signal intensities with the signal derived from PPIA and with minimum background subtraction.

The test system of data set [3] is primary acute myelogenous leukemia (AML) cells. Nature of the data set: Assay for antileukemic activity (Annexin V/7-AAD apoptosis analysis by flow cytometry). In kind it is cell-based. To be noted: 24 hours of culture. Here is the method:
For apoptosis analysis, one million primary acute myelogenous leukemia (AML) cells were washed with cold PBS and resuspended in 200 microliters of Annexin binding buffer (10 mM HEPES/NaOH pH 7.4; 140 mM NaCl; 2.5 mM CaCl2). Annexin V-FITC (Pharmingen) and 0.25 mg/mL 7-AAD (7-aminoactinomycin D, Molecular Probes, CA) were added and the tubes were incubated at room temperature in the dark for 15 minutes. Cells were then diluted with 200 microliters of Annexin binding buffer and analyzed immediately by flow cytometry. Viable cells were identified as failing to label with Annexin V or 7-AAD. Cells beginning to die label with Annexin V, and as membrane integrity is lost, will also label with 7-AAD. […] Data are normalized to untreated control specimens. The data are in Table 1 for aminoparthenolide derivatives and Table 2 for the salts of some aminoparthenolides.
(Flow cytometry measures light scatter and fluorescence of single cells or particles in a stream.)

The test system of data set [4] is normal hematopoietic stem cells. Nature of the data set: Human-mouse xenograft: NOD/SCID engraftment of normal donor cells treated in vitro. To be noted: 7.5 micromolar in vitro for 12-18 hours, bone marrow analysed after 6-8 weeks (CD45). Format: in vivo. Here is the method:
To assess the effect of parthenolide on primary human stem cell populations, experiments were conducted using transplantation into immune deficient NOD/SCID mice. […] For each experiment, cryopreserved mononuclear cell specimens from normal or AML donors were thawed, and treated in vitro with 7.5 micromolar parthenolide for 12-18 hours. Following culture, 5-10 million cells/animal were injected intravenously into sublethally irradiated (300 Rad) NOD/SCID mice. After 6-8 weeks, animals were sacrificed and bone marrow was analyzed for the presence of human cells using flow cytometry as previously described (Guzman et al., Proc Natl Acad Sci USA 2002; 99: 16220-162253). Human specific antibodies for CD45 were used to assess the level of total engraftment.
For orientation: In xenograft studies the graft and the host belong to different species.

The next data set concerns NF-κB DNA binding. In words: Electrophoretic mobility gel shift assay (EMSA). To be noted: three hours. Format: cell-based. Here is the method:
Each cancer cell line in exponential growth phase was treated with solvent control or various concentrations of parthenolide derivatives dissolved in 100% ethanol for 3 hours prior to harvesting. Cells were harvested and whole cell extracts were prepared as described previously (Nakshatri et al., Mol Cell Biol, 17: 3629-3639, 1997; Sweeney et al., Clin Cancer Res, 10: 5501-5507, 2004). Extracts were incubated with a radiolabelled NFκB probe for 30 minutes at room temperature. The oligonucleotide probe binds to the NFκB DNA binding site in the promoter region of the immunoglobulin gene. Electrophoresis and autoradioragraphy were performed as described previously (Nakshatri et al., 1997) using NFκB and SP-1 probes (Promega, Madison, Wis.). The specificity of parthenolide and derivative inhibition of NFκB DNA binding was verified by the use of the SP-1 probe as a control. Identification of the NFκB subunits binding to DNA and inhibited by DMAPT were identified by gel supershift. Constitutive NF-κB DNA binding activity was determined in the lung cancer cell lines A-549, H-23, H-522, and H-460. All four non-small lung cancer cells were treated with increasing concentrations of DMAPT for three hours, and NF-κB DNA binding was measured by electrophoretic mobility shift assay (EMSA) as described. NF-κB DNA binding activity was highest in A-549 cells, followed by H-23, H-522 and H-460 cells.
Cancer cell lines HT-1376 and UMUC-3 were treated with increasing concentrations of DMAPT for three hours. Whole cell extracts were prepared as described and DNA binding by NF-κB was analyzed by EMSA with NF-κB and OCT-1 (internal control) probes.
The hormone refractory prostate cancer cell line, CWR22Rv1 was treated with increasing concentrations of DMAPT for three hours. Whole cell extracts were prepared as described and DNA binding by NF-κB was analyzed by EMSA with NF-κB and SP-1 (internal control) probes.

A short description of data set [5]: Oral bioavailability in mice: plasma level by LC-MS. Format: in vivo. To be noted: mouse, 40 mg/kg oral, read-out: plasma level one hour after oral gavage. How it is done:
(§1) Preliminary in vivo work was conducted to determine the bioavailability and toxicity of this agent in mice.

The nature of data set [6]: Preliminary toxicity study in mice. In kind it is in vivo. To be noted: oral 40 mg/kg daily, three weeks, mice gained weight and survived. How it is done:
as §1

Where [7] appears, read: DMAPT (10 micromoles) pre-treatment for 2 hours then 1 hour treatment of LPS (10 nM).

Consider `C/C1=C\CC[C@@]2(C)O[C@@H]2[C@H]2OC(=O)[C@H](CN(C)C)[C@@H]2CC1` [DMAPT, 11S,11,13-Dihydro,13-dimethylaminoparthenolide], for which, in data set [1], the “sensitisation to TRAIL or TRAIL-RII activating antibody-induced apoptosis” value is on record as “became sensitive”. Also, the “% Change of Genes: Intercellular Adhesion Molecule 1” value in data set [2] (setting [7]) is 58%. In addition, in data set [2] (setting [7]), the “% Change of Genes: Nitric oxide synthase 2A (inducible)” value was 48%. The “% Change of Genes: Tumor necrosis factor (ligand) superfamily, member 5” value in data set [2] (setting [7]) is reported as 23%. Also, the “transcription of tumor necrosis factor (TNF), relative to control” value in data set [2] (pretreatment with DMAPT, then LPS) was 2 % of control. In addition, the Antileukemic activity was 5 μM, 31% in data set [3] (5 μM); 10 μM, 90% in data set [3] (10 μM, normalized to untreated control); 20 μM, 95% in data set [3] (20 μM). Also, the “level of engraftment of treated normal cells in NOD/SCID mice” value in data set [4] is listed as “no significant effects”. Further, the “NF-κB DNA binding” value in the data set on NF-κB DNA binding (CWR22Rv1, 10 μM) is “substantial decreases”; in the data set on NF-κB DNA binding (HT-1376 and UMUC-3 cell lines, increasing concentrations), “decreased NF-κB DNA binding in a dose-dependent manner”. For the same compound, in the data set with NF-κB DNA binding (lung cancer cell lines A-549, H-23, H-522, H-460, between 2 and 10 micromolar), the “NF-κB DNA binding activity” value is on record as “substantially decreased”. Besides, the concentration at 1 h in data set [5] (LC-MS, average of 5 mice) was approximately 2500 ng/mL; in data set [5] (conversion of the ng/mL value) it was 8 µM. Besides, in data set [6], the “toxicity on daily oral treatment” value is listed as “no overt toxicities”.
